Consider nine molecules from patent US10329320B2, “Neuroactive steroids, compositions, and uses thereof” (Sage Therapeutics, Inc., priority 2015, dated 2019).

Some results are limits rather than exact numbers.

The assay deals with GABAA receptor ([35S]-TBPS binding, rat brain cortical membranes). The assay is described as follows: Steroid inhibition of [35S]-TBPS binding (radioligand displacement). The following applies: 3 nM [35S]-TBPS, in the presence of 5 μM GABA. How it is done:
TBPS binding assays using rat brain cortical membranes in the presence of 5 μM GABA has been described (Gee et al, J. Pharmacol. Exp. Ther. 1987, 241, 346-353; Hawkinson et al, Mol. Pharmacol. 1994, 46, 977-985; Lewin, A. H et al., Mol. Pharmacol. 1989, 35, 189-194).
Briefly, cortices are rapidly removed following decapitation of carbon dioxide-anesthetized Sprague-Dawley rats (200-250 g). The cortices are homogenized in 10 volumes of ice-cold 0.32 M sucrose using a glass/teflon homogenizer and centrifuged at 1500×g for 10 min at 4° C. The resultant supernatants are centrifuged at 10,000×g for 20 min at 4° C. to obtain the P2 pellets. The P2 pellets are resuspended in 200 mM NaCl/50 mM Na—K phosphate pH 7.4 buffer and centrifuged at 10,000×g for 10 min at 4° C. This washing procedure is repeated twice and the pellets are resuspended in 10 volumes of buffer. Aliquots (100 μL) of the membrane suspensions are incubated with 3 nM [^35S]-TBPS and 5 μL aliquots of test drug dissolved in dimethyl sulfoxide (DMSO) (final 0.5%) in the presence of 5 μM GABA. The incubation is brought to a final volume of 1.0 mL with buffer. Nonspecific binding is determined in the presence of 2 μM unlabeled TBPS and ranged from 15 to 25%. Following a 90 min incubation at room temp, the assays are terminated by filtration through glass fiber filters (Schleicher and Schuell No. 32) using a cell harvester (Brandel) and rinsed three times with ice-cold buffer. Filter bound radioactivity is measured by liquid scintillation spectrometry. Non-linear curve fitting of the overall data for each drug averaged for each concentration is done using Prism (GraphPad). […] The concentration of test compound producing 50% inhibition (IC50) of specific binding and the maximal extent of inhibition (Imax) are determined for the individual experiments with the same model used for the overall data and then the means ±SEM.s of the individual experiments are calculated.
Various compounds are or can be screened to determine their potential as modulators of [^35S]-TBPS binding in vitro. These assays are or can be performed in accordance with the above discussed procedures.
(Loss of bound radioactivity is the signal in a displacement assay; it reports binding, not function.)
In general, IC50 refers to the concentration that inhibits the measured activity by half. As for `CC(C)OC[C@]12CC[C@@](C)(O)C[C@H]1CC[C@H]1[C@@H]3CC[C@H](C(=O)Cn4nc5ccc(F)c(F)c5n4)[C@@]3(C)CC[C@@H]12` [Compound 70], the IC50 was under 10 nM.

On to `CC(C)OC[C@]12CC[C@@](C)(O)C[C@H]1CC[C@H]1[C@@H]3CC[C@H](C(=O)Cn4ncnn4)[C@@]3(C)CC[C@@H]12` [Compound 72], for which the IC50 was under 10 nM.

As to `COC[C@]12CC[C@@](C)(O)C[C@H]1CC[C@@H]1[C@@H]2CC[C@]2(C)C(C(=O)Cn3nnnc3C)CC[C@@H]12` (stereo partly drawn) [Compound 74], the IC50 lay in the range of 100 to 500 nM.

Turning to `COC[C@]12CC[C@@](C)(O)C[C@@H]1CC[C@H]1[C@@H]3CC[C@H](C(=O)Cn4cc5cc(F)ncc5n4)[C@@]3(C)CC[C@@H]12` [Compound 75], the IC50 was 100 to 500 nM.

As to `CCOC(=O)c1cn(CC(=O)[C@H]2CC[C@H]3[C@@H]4CC[C@H]5C[C@](C)(O)CC[C@]5(COC)[C@H]4CC[C@]23C)nn1` [Compound 80], the IC50 is 100 to 500 nM.

`COC[C@]12CC[C@@](C)(O)C[C@@H]1CC[C@H]1[C@@H]3CC[C@H](C(=O)Cn4ncc(C(=O)O)n4)[C@@]3(C)CC[C@@H]12` [Compound 81]: the half-inhibitory concentration (IC50) was over 500 nM.

In the case of `COC[C@]12CC[C@@](C)(O)C[C@@H]1CC[C@H]1[C@@H]3CC[C@H](C(=O)Cn4cc(C(=O)O)nn4)[C@@]3(C)CC[C@@H]12` [Compound 82], the IC50 is over 500 nM.

With `COC[C@]12CC[C@@](C)(O)C[C@@H]1CC[C@H]1[C@@H]3CC[C@H](C(=O)Cn4ncc(C(N)=O)n4)[C@@]3(C)CC[C@@H]12` [Compound 83], the IC50 was 100 to 500 nM.

Take `COC[C@]12CC[C@@](C)(O)C[C@@H]1CC[C@H]1[C@@H]3CC[C@H](C(=O)Cn4ncc(CO)n4)[C@@]3(C)CC[C@@H]12` [Compound 85]: the IC50 was over 500 nM.
